Experimental data from patent US11911377B2, “Method for treating hypertension by using compound” (Fu Jen Catholic University, priority 2021, dated 2024).

How the values were obtained:
[1] = system: SHR primary VSMCs; assay: MTT assay for cell viability of SHR primary VSMCs; assay type: cell-based, rat; conditions: 1, 2.5, 5, 10, 30, or 50 μmol/L Y16, 24 hours
Procedure: The procedure of 3-(4,5-dimethylthiazol-2-yl)-2,5-diphenyltetrazolium bromide (MTT) assay for cell viability used in this example is as follows. The cytotoxicity results for Y16 or Rhosin were determined using an MTT-based in vitro assay. Briefly, the media from the cell cultures was discarded and carefully aspirated. Next, 50 μL of serum-free media and 50 μL of MTT solution were added into each well. The plate was then incubated at 37° C. for 3 hours. After incubation, 150 μL of MTT solvent (4 mM HCl, 0.1% NP40 in isopropanol) was added into each well. The plate was then wrapped in foil and shaken on an orbital shaker for 15 minutes, and the absorbance was read at OD=590 nm.

[2] = system: myosin phosphatase target subunit 1 (MYPT1) phosphorylation; assay: MYPT1 phosphorylation by Western blot in Ang II-stimulated SHR VSMCs; assay type: cell-based, rat
Source text: (§1) The culture procedure of the primary cultured vascular smooth muscle cells (VSMCs) used in this example or the following examples is as follows. SHRs were anesthetized with Zoletil 50, and the thoracic aortas were immediately excised. The samples were then carefully cleaned of connective tissue and adherent fat. Each isolated aorta was cut open longitudinally, followed by endothelial removal by gently grazing the intimal surface. The denuded aortas were cut into approximately 2 mm^2 sections and then placed with the intimal side down. The M199 medium supplemented with 20% fetal bovine serum and antibiotics (100 U/ml penicillin and 100 μg/ml streptomycin) were then gently added to cover the tissues without disturbing the orientation of the explants. VSMCs were allowed to grow out from the explants for 7-10 days culture, and the tissues were removed.
The treatment method of the small molecule compounds used in this example or the following examples is as follows. Small molecule compounds were dissolved in pure water to test their effects on the VSMCs. Different concentrations of Y16 or the combination of Y16+Rhosin were administered for 24 hours, followed by stimulation with 10^−7M angiotensin II (Ang II) for 10 min. The Y16 concentrations used were as follows: 1 μM, 2.5 μM, 5 μM, 10 μM, 30 μM, 50 μM.
The procedure of cell harvest and protein extraction used in this example or the following examples is as follows. Culture dishes were placed on ice and washed twice with ice-cold phosphate-buffered saline (PBS). All subsequent procedures were performed over ice. […] The protein concentrations were determined using a BSA Protein Assay kit.
The procedure of Western blot analysis used in this example or the following examples is as follows. […] Signals were visualized using a UVP Imaging System (UVP) or with X-ray film, and the results were expressed as the densitometric ratio of target protein/GAPDH or phosphor-MYPT1/total-MYPT1. […]

[3] = system: spontaneously hypertensive rats (SHRs); assay: Histological examination (HE) of heart, liver, lung and kidney of SHRs; assay type: in vivo, rat; conditions: doses used in the experiments
Procedure: (§2) The procedure of physiological signals recording and blood tests used in this example or the following examples is as follows. The rats were anesthetized with Zoletil 50 (30 mg/kg, intraperitoneal injection) and then attached to a physiological signal recording device. The Y16 and Rhosin were administered to them by intravenous injection. Their electrocardiography (ECG), heart rate (HR), and blood pressure (BP) measurements were taken for 90 minutes. After observing and recording the physiological signals, blood was drawn from the rats in an appropriate test tube and stored for subsequent tests for complete blood cell count, liver function and renal function. The rats were then sacrificed. Their heart, lungs, liver, and kidneys were removed and stored in paraformaldehyde for further histological examinations.
The procedure of histological examination used in this example is as follows. The tissues were fixed in 4% paraformaldehyde overnight and then embedded in paraffin for histological examination. The transverse sections (4 μm) were incubated at 75˜85° C. for 10 minutes, followed by stained with hematoxylin/eosin (HE), and examined under a light microscope. Severity of lesions was graded according to the methods described by Shackelford et al. (2002). […]

[4] = system: spontaneously hypertensive rats (SHRs); assay: Blood tests (complete blood cell count, liver function) in SHRs after dosing; assay type: in vivo, rat; conditions: for platelets count (PLC) or white blood cell counts (WBC): significant versus control
Procedure: (§3) The animal model used in this example or the following examples is illustrated as follows. The Institutional Animal Care and Use Committee of the Fu Jen Catholic University, New Taipei, Taiwan (Approval No A10660), approved all of the animal procedures and experimental protocols. Male 16-week-old SHRs (body weight range: 350-370 g) were purchased from the National Laboratory Animal Center, Taipei, Taiwan. The animals were housed at a temperature of 21° C. under a 12 h light/dark cycle and fed a regular pellet diet. The animals were divided into three main groups—the Y16 group, the Rhosin group, and the Y16+Rhosin group. Each group was further divided into several subgroups according to the administered Y16 and Rhosin dose. Their concentrations are listed below: Y16 group: 0.2 mg/kg, 1 mg/kg, 5 mg/kg, 10 mg/kg, 20 mg/kg; Rhosin group: 5 mg/kg, 10 mg/kg, 20 mg/kg; Y16+Rhosin group: (Y16, 3 mg+Rhosin, 7 mg)/kg, (Y16, 5 mg+Rhosin, 10 mg)/kg.
as §2
The animal model and experimental procedure of this example are the same as those described in Example 6. To observe whether the use of Y16 or Rhosin might have adverse effects or even harm to the animals, the blood of rats was drawn for the blood test after collecting the required physiological signals.

[5] = system: spontaneously hypertensive rats (SHRs); assay: Physiological signals recording (BP, HR) in anesthetized SHRs after intravenous injection; assay type: in vivo, rat; conditions: for decrease of BP: versus 0 min
Source text: According to the present invention, the statistical analysis used in the following examples is described as follows. For the physiological signals recording, the data from different time intervals of each rat was compared with that from before Y16 and Rhosin administration. Considering the differences of physiological conditions among individuals, the BP and HR are not calculated by the absolute value measured, but by the percentage of the BP or HR measured at each time point relative to those measured before administration (0 minutes). All data were representative of at least four independent experiments.
as §3, §2

[6] = system: LARG-RhoA interaction; assay: LARG-RhoA interaction by co-immunoprecipitation and Western blot in Ang II-stimulated SHR VSMCs; assay type: cell-based, rat
Source text: as §1
The treatment method of the small molecule compounds used in this example or the following examples is as follows. Small molecule compounds were dissolved in pure water to test their effects on the VSMCs. […]
The procedure of cell harvest and protein extraction used in this example or the following examples is as follows. […] The protein concentrations were determined using a BSA Protein Assay kit. […]

platelets count (PLC) or white blood cell counts (WBC) ([4]; 0.2 mg/kg iv): slightly high
platelets count (PLC) or white blood cell counts (WBC) ([4]; 1 mg/kg iv): slightly high
abnormalities regarding complete blood cell count and liver function ([4]; doses used in the experiments, iv): did not cause any overt abnormalities
Compound: Cc1cccc(COc2cccc(/C=C3\C(=O)NN(c4ccccc4)C3=O)c2)c1 [Y16, (E)-4-(3-(3-methylbenzyloxy)benzylidene)-1-phenylpyrazolidine-3,5-dione]
effect on the growth (cell viability) of SHR VSMCs [1]: no conspicuous effect on the growth
phospho-MYPT1 normalized to total-MYPT1 ([2]; 5 μM Y16, 24 h, then 10^−7M Ang II 10 min, control 0.994±0.048, P=0.041): 0.642±0.199
inhibition of MYPT1 phosphorylation ([2]; Y16 1-50 μM, 24 h): dose-dependent inhibition
working concentrations required for the effective inhibition of MYPT1 phosphorylation ([2]; lowest concentration with statistically significant difference): 5 µM
injuries by histological analyses of heart, liver, lungs, and kidneys [3]: did not cause any overt injuries
effect on BP ([5]; 0.2 mg/kg iv): no effects on BP
effect on BP ([5]; 1 mg/kg iv): no effects on BP
duration of BP decrease ([5]; 5 mg/kg iv): 30 min
decrease of BP ([5]; 5 mg/kg iv): 21%
BP as percentage of BP before administration (0 min) ([5]; 5 mg/kg iv, p=0.0081): 79%±13%
duration of BP decrease ([5]; 10 mg/kg iv): over 60 minutes
decrease of BP ([5]; 10 mg/kg iv): 21%
BP as percentage of BP before administration (0 min) ([5]; 10 mg/kg iv, p=0.0007): 79%±12%
duration of BP decrease ([5]; 20 mg/kg iv): over 60 minutes
BP as percentage of BP before administration (0 min) ([5]; 20 mg/kg iv, 20 minutes, p=0.0187): 58%±8%
reduction of HR ([5]; 20 mg/kg iv, for 30 minutes, not statistically significant): 16%
maximum blood pressure reduction effect ([5]; 20 mg/kg iv, in 20 minutes): 42%
HR as percentage of HR before administration (0 min) ([5]; 20 mg/kg iv, p=0.1067): 84%±8%
LARG-RhoA interaction, relative amount of RhoA normalized to GAPDH ([6]; 50 μM Y16, 24 h, then 10^−7M Ang II 10 min, control 0.939±0.121, p<0.001): 0.469±0.074
inhibition of LARG-RhoA complex formation induced by Ang II ([6]; Y16 1-50 μM, 24 h): dose-dependently inhibited
